What was measured:
S. Montevideo = settings: 500 μl AITC; cited from earlier work
native flora of alfalfa = test: Total count in non-inoculated alfalfa seed after disinfection; format: cell-based
Method: (§1) A comparison between the activity of aqueous extract and that of hypochlorite (1,000 and 10,000 ppm) was performed in non-inoculated seed. A total count was carried out in all cases.

native flora of soybeans = test: Total count in non-inoculated soybean seed after disinfection; format: cell-based
Method: as §1

Salmonella sp = settings: submerging sprouts into 100 and 200 ppm hypochlorite solutions; cited from earlier work
soybean seeds = test: Toxic effect on seed germination (FIGS. 1 to 6); format: in vivo, soybean seeds (Vigna radiata L)
Method: Therefore, a study comparing the toxic effect of hypochlorite (1,000 and 10,000 ppm), hibiscus vegetal extract and acetic acid was performed, yielding the results shown in FIGS. 1 to 6.

toxigenic fungus = settings: in food; cited from earlier work
almost all flora = settings: in food, within reasonable elevated limits of initial load; cited from earlier work
most pathogens = settings: in food; cited from earlier work
L. monocytogenes = test: Diffusion technique, inhibition zone on agar; format: cell-based, Listeria monocytogenes; settings: 1:10 dilution of aqueous hibiscus extract, 10 μL on plate, 35±1° C., 24 h
Method: (§2) This procedure was repeated twice. […] Finally, each strain was 10-fold diluted with ISS.
(§3) 100 μL from the first dilution of the respective pathogen culture were inoculated in AST plates. Inoculum was completely distributed on agar surface by the surface extension technique. From the dry extract, a 10% solution of hibiscus calyxes was prepared with distilled water. 10 μL aliquots of this extract were placed on each inoculated plate. Four repetitions were carried out. After the extract was absorbed by agar the plates were incubated at 35±1° C. for 24 h. Finally, the diameter of each inhibition zone was measured on the inoculated surface.

P. aeruginosa = test: Diffusion technique, inhibition zone on agar; format: cell-based, Pseudomonas aeruginosa; settings: 1:10 dilution of aqueous hibiscus extract, 10 μL on plate, 35±1° C., 24 h
Method: as §2, §3

S. choleraesuis = test: Diffusion technique, inhibition zone on agar; format: cell-based, Salmonella choleraesuis; settings: 1:10 dilution of aqueous hibiscus extract, 10 μL on plate, 35±1° C., 24 h
Method: as §2, §3

S. aureus = test: Diffusion technique, inhibition zone on agar; format: cell-based, Staphylococcus aureus; settings: 1:10 dilution of aqueous hibiscus extract, 10 μL on plate, 35±1° C., 24 h
Method: as §2, §3

S. sonnei = test: Diffusion technique, inhibition zone on agar; format: cell-based, Shigella sonnei; settings: 1:10 dilution of aqueous hibiscus extract, 10 μL on plate, 35±1° C., 24 h
Method: as §2, §3

V. cholerae O1 = test: Diffusion technique, inhibition zone on agar; format: cell-based, Vibrio cholerae O1; settings: 1:10 dilution of aqueous hibiscus extract, 10 μL on plate, 35±1° C., 24 h
Method: as §2, §3

S. typhimurium = test: Diffusion technique, inhibition zone on agar; format: cell-based, Salmonella typhimurium; settings: 1:10 dilution of aqueous hibiscus extract, 10 μL on plate, 35±1° C., 24 h
Method: as §2, §3

S. flexneri = test: Diffusion technique, inhibition zone on agar; format: cell-based, Shigella flexneri; settings: 1:10 dilution of aqueous hibiscus extract, 10 μL on plate, 35±1° C., 24 h
Method: as §2, §3

E. coli = test: Diffusion technique, inhibition zone on agar; format: cell-based, Escherichia coli; settings: 1:10 dilution of aqueous hibiscus extract, 10 μL on plate, 35±1° C., 24 h
Method: as §2, §3

Enterapathogenic E. coli = test: Diffusion technique, inhibition zone on agar; format: cell-based, Escherichia coli; settings: 1:10 dilution of aqueous hibiscus extract, 10 μL on plate, 35±1° C., 24 h
Method: as §2, §3

Enteroinvasive E. coli = test: Diffusion technique, inhibition zone on agar; format: cell-based, Escherichia coli; settings: 1:10 dilution of aqueous hibiscus extract, 10 μL on plate, 35±1° C., 24 h
Method: as §2, §3

Enterotoxigenic E. coli = test: Diffusion technique, inhibition zone on agar; format: cell-based, Escherichia coli; settings: 1:10 dilution of aqueous hibiscus extract, 10 μL on plate, 35±1° C., 24 h
Method: as §2, §3

[1] = Table 9, hypochlorite 1,000 ppm
[2] = Table 11, hypochlorite 10,000 ppm
[3] = Table 8, hypochlorite 1,000 ppm
[4] = Table 10, hypochlorite 10,000 ppm

## C=CCN=C=S [AITC]
S. Montevideo
  decrease of S. Montevideo on tomato cuticle: 8 Log

## OCl [Hypochlorite, sodium hypochlorite]
Native flora of alfalfa; [1]
  % of decrease: 6.95%
  Decrease: 0.18 Log10 CFU/g
Native flora of alfalfa; Table 9, hypochlorite 1,000 ppm, initial 3.59, N = 3
  Final concentration: 3.41 ± 0.38 Log10 CFU/g
Native flora of alfalfa; [2]
  % of decrease: 17.31%
  Decrease: 0.40 Log10 CFU/g
Native flora of alfalfa; Table 11, hypochlorite 10,000 ppm, initial 3.30-3.31, N = 3
  Final concentration: 2.9 ± 0.56 Log10 CFU/g
Native flora of soybeans; [3]
  % of decrease: 6.95%
  Decrease: 0.18 Log10 CFU/g
Native flora of soybeans; Table 8, hypochlorite 1,000 ppm, initial 2.59 ± 1.19, N = 3
  Final concentration: 2.41 ± 1.08 Log10 CFU/g
Native flora of soybeans; [4]
  % of decrease: 17.31%
  Decrease: 0.40 Log10 CFU/g
Native flora of soybeans; Table 10, hypochlorite 10,000 ppm, initial 2.31 ± 0.89, N = 3
  Final concentration: 1.91 ± 1.23 Log10 CFU/g
Salmonella sp
  reduction of Salmonella sp in sprouts: 1 Log10
Soybean seeds; FIGS. 2 and 4
  structural damage of seeds: structural damage
Soybean seeds; hypochlorite, FIG. 4 (10,000 ppm sodium hypochlorite solution)
  decrease of the sprout yield: 87.63%

## CC(=O)O [acetic acid]
Toxigenic fungus
  concentration that has effects on toxigenic fungus: 0.5%
Almost all flora
  concentration that inhibits almost all flora: 1-2%
Most pathogens
  concentration that acts on most pathogens: 0.1%

## penicillin
L. monocytogenes
  Inhibition diameter: 12 mm
P. aeruginosa
  Inhibition diameter: 13 mm
S. choleraesuis
  Inhibition diameter: 12 mm
S. aureus
  Inhibition diameter: 13 mm
S. sonnei
  Inhibition diameter: 14 mm
V. cholerae O1
  Inhibition diameter: 13 mm
S. typhimurium
  Inhibition diameter: 15 mm
S. flexneri
  Inhibition diameter: 12 mm
E. coli
  Inhibition diameter: 13 mm
Enterapathogenic E. coli
  Inhibition diameter: 11 mm
Enteroinvasive E. coli
  Inhibition diameter: 12 mm
Enterotoxigenic E. coli
  Inhibition diameter: 12 mm

Source: US11229224B2, “Phytochemical compositions used as disinfectants and food preservatives” (priority 2012, dated 2022)
